Data taken from US11008340B2, “Modulators of ROR-gamma” (Vitae Pharmaceuticals, LLC, priority 2015, dated 2021).
Read-outs that look alike come from different tables or passages of the source.

Target: T1, recombinant RORγ Ligand Binding Domain (LBD) protein (Homo sapiens, UniProt P51449)
T1 construct: 6×His; GST
T1 sequence (P51449 269-508 limits assumed): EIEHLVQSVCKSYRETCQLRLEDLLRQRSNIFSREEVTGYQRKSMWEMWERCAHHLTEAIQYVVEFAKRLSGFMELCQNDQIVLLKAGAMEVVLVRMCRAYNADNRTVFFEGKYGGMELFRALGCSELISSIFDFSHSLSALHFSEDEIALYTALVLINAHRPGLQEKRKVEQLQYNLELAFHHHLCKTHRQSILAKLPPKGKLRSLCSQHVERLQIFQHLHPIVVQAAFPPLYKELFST
Experiment: Radio-Ligand RORγ Binding Assay (Assay 1)
Conditions: read-out: Avg ROR Bind Ki
Protocol: Radio-Ligand RORγ Binding Assay (Assay 1)
Compounds described herein were tested for ability to bind to RORγ in a cell-free competition assay with commercially available radio-ligand (RL), 25-hydroxy [26,27-^3H]-cholesterol (PerkinElmer, Cat. #NET674250UC), for a ligand binding site on a recombinant RORγ Ligand Binding Domain (LBD) protein expressed as a 6×His-Glutathione-S-Transferase (GST) fusion. The assay was performed in 96-well SPA plates (PerkinElmer, Cat. #1450-401) in 50 mM HEPES buffer, pH 7.4, containing 150 mM NaCl, 5 mM MgCl2, 10% (v/v) glycerol, 2 mM CHAPS, 0.5 mM 3-octylglucopyranoside and 5 mM DTT. Tested compounds were dissolved in DMSO, and semi-log (3.162×) serial dilutions of the compounds were prepared in the same solvent. Two μL of the DMSO solutions were mixed with 28 μL of 8.6 nM 25-hydroxy [26,27-^3H]-cholesterol and 50 μL of 24 nM RORγ LBD. The plate was shaken at 700 rpm for 20 min and incubated for 10 min at rt, after which 40 μL of poly-Lys YSi SPA beads (PerkinElmer, Cat. #RPNQ0010) were added to achieve 50 μg of the beads per well. The plate was incubated on an orbital shaker for 20 min and then for 10 min without agitation at rt. SPA signal for tritium beta radiation was registered on PerkinElmer Microbeta plate reader. […] The percent inhibition vs. concentration data were fit into a four-parameter model, and IC50 values were calculated from the fit as the concentrations corresponding to the inflection points on the dose-response curves. Inhibitory constants (Ki) were calculated using the following equation, where [RL] is the concentration in the assay and KD is a dissociation constant of 25-hydroxy [26,27-^3H]-cholesterol: […]

[1] = radio-ligand competition, RORγ LBD, head without unit (Tables 15, 17)
[2] = competition with 25-hydroxy [26,27-3H]-cholesterol, SPA, class symbols
[3] = radio-ligand competition, 25-hydroxy [26,27-3H]-cholesterol, RORγ LBD

Structure (SMILES) | Ki [1] [nM] | Ki [3] [nM] | also measured
CCS(=O)(=O)c1ccc(CNC(=O)c2cnc3c(c2)CCN(C[C@H]2CC[C@H](C(F)(F)F)CC2)[C@@H]3C(C)C)cc1 (single isomer, unassigned) [Hy2B-9.2] | 100 to 1000 |  | 
CCS(=O)(=O)c1ccc(CNC(=O)c2ccc3c(OC[C@H]4CC[C@H](C(F)(F)F)CC4)ncnc3c2)cc1 [Hy1C-2, N-(4-(ethylsulfonyl)benzyl)-4-(((1r,4r)-4-(trifluoromethyl)cyclohexyl)methoxy)quinazoline-7-carboxamide] |  |  | Ki [2]: 100 to 1000 nM
CCOC(=O)c1cnc(N2CCc3cc(C(=O)NCc4ccc(S(=O)(=O)CC)cc4)cnc3[C@@H]2C(C)C)nc1C(F)(F)F (single isomer, unassigned) [Hy2B-5.2] | 100 to 1000 |  | 
CCS(=O)(=O)c1ccc(CNC(=O)c2ccc3c(c2)CCN(Cc2ccc(OC(F)F)nc2)[C@@H]3C(C)C)cc1 (single isomer, unassigned) [Hy2A-25.2] |  | 100 to 1000 | 
CCOC(=O)c1cnc(N2CCc3cc(C(=O)NCc4ccc(S(=O)(=O)CC)cc4)cnc3[C@H]2C(C)C)nc1 (single isomer, unassigned) [Hy2B-4.1] | > 1000 |  | 
CCS(=O)(=O)c1ccc([C@H](CO)NC(=O)c2ccc3c(OC[C@H]4CC[C@H](C(F)(F)F)CC4)ncnc3c2)cc1 [Hy1C-1, N-((R)-1-(4-(ethylsulfonyl)phenyl)-2-hydroxyethyl)-4-(((1r,4R)-4-(trifluoromethyl)cyclohexyl)methoxy)quinazoline-7-carboxamide] |  |  | Ki [2]: 100 to 1000 nM
CC1c2ccc(C(=O)NCc3ccc(S(C)(=O)=O)cc3)cc2CCN1Cc1ccc(C#N)cc1 (racemic) [Hy2A-7, 2-(4-cyanobenzyl)-1-methyl-N-(4-(methylsulfonyl)benzyl)-1,2,3,4-tetrahydroisoquinoline-6-carboxamide] |  | > 1000 | 
CCS(=O)(=O)c1ccc(CNC(=O)c2ccc3c(c2)CCN(c2ncc(C#N)cn2)[C@@H]3C(C)C)cc1 (single isomer, unassigned) [Hy2A-1.1] |  | 100 to 1000 | 
CCS(=O)(=O)c1ccc(CNC(=O)c2cnc3c(c2)CN(c2ncc(C(F)(F)F)cn2)CC3(C)C)cc1 [Hy7B-1, N-(4-(ethylsulfonyl)benzyl)-8,8-dimethyl-6-(5-(trifluoromethyl)pyrimidin-2-yl)-5,6,7,8-tetrahydro-1,6-naphthyridine-3-carboxamide] |  | 100 to 1000 | 
CCS(=O)(=O)c1ccc(CNC(=O)c2ccc3c(OC[C@H]4CC[C@H](C(F)(F)F)CC4)cc(C)nc3c2)cc1 [Hy1B-2, N-(4-(ethylsulfonyl)benzyl)-2-methyl-4-(((1r,4r)-4-(trifluoromethyl)cyclohexyl)methoxy)quinoline-7-carboxamide] |  | 100 to 1000 | 
CCOC(=O)c1cnc(N2CCc3cc(C(=O)NCc4ccc(S(=O)(=O)CC)cc4)ccc3[C@H]2C(C)C)nc1 (single isomer, unassigned) [Hy2A-4.2] |  | 100 to 1000 | 
CCS(=O)(=O)c1ccc([C@H](CO)NC(=O)c2cn(C)c3c(OC[C@H]4CC[C@H](C(F)(F)F)CC4)nccc23)cc1 [Hy5-5, N-((R)-1-(4-(ethylsulfonyl)phenyl)-2-hydroxyethyl)-1-methyl-7-(((1r,4R)-4-(trifluoromethyl)cyclohexyl)methoxy)-1H-pyrrolo[2,3-c]pyridine-3-carboxamide] |  | 100 to 1000 | 
CCS(=O)(=O)c1ccc(CNC(=O)c2ccc3c(c2)CN(c2ncc(N4CCOCC4)cn2)C[C@@H]3C(C)C)cc1 (single isomer, unassigned) [Hy7-19.2] |  | > 1000 | 
CCS(=O)(=O)c1ccc(CNC(=O)c2ccc3c(c2)CN(c2ncc(-c4ccn(C)c(=O)c4)cn2)C[C@@H]3C(C)C)cc1 (single isomer, unassigned) [Hy7-25.2] |  | > 1000 | 
CCS(=O)(=O)c1ccc(CNC(=O)c2ccc3c(c2)CN(c2ncc(-c4ccc(=O)n(C)c4)cn2)C[C@@H]3C(C)C)cc1 (single isomer, unassigned) [Hy7-24.2] |  | > 1000 | 
CCS(=O)(=O)c1ccc(CNC(=O)c2ccc3c(c2)CN(c2ncc(-c4ccnc(OC)c4)cn2)C[C@@H]3C(C)C)cc1 (single isomer, unassigned) [Hy7-23.2] |  | 100 to 1000 | 
CCS(=O)(=O)c1ccc(CNC(=O)c2cnc3c(c2)CCN(Cc2ccc(Cl)cc2)C3C(C)C)cc1 (single isomer, unassigned) [Hy2B-8.2] | 100 to 1000 |  | 
CCOC(=O)c1cnc(N2Cc3cc(C(=O)N[C@@H](CO)c4ccc(S(=O)(=O)CC)cc4)ccc3[C@@H](CC)C2)nc1 (single isomer, unassigned) [Hy7-34.2] |  | < 100 | 
CCS(=O)(=O)c1ccc(CNC(=O)c2ccc3c(c2)CCN(Cc2ccc(C#N)nc2)[C@@H]3C(C)C)cc1 (single isomer, unassigned) [Hy2A-17.2] |  | 100 to 1000 | 
CCS(=O)(=O)c1ccc(CNC(=O)c2cc3ccnc(OC[C@H]4CC[C@H](C(F)(F)F)CC4)c3[nH]2)cc1 [Hy4-5, N-(4-(ethylsulfonyl)benzyl)-7-(((1r,4r)-4-(trifluoromethyl)cyclohexyl)methoxy)-1H-pyrrolo[2,3-c]pyridine-2-carboxamide] | 100 to 1000 |  | 
CCS(=O)(=O)c1ccc(CNC(=O)c2cnc3c(c2)CCN(c2ncc(C#N)cn2)[C@@H]3C(C)C)cc1 (single isomer, unassigned) [Hy2B-1.2] | > 1000 |  | 
CC[C@H]1CN(c2ncc(C(F)(F)F)cn2)Cc2cc(C(=O)N[C@@H](CO)c3ccc(S(=O)(=O)CC)cn3)ccc21 (single isomer, unassigned) [Hy7-18.3] |  | 100 to 1000 | 
CCS(=O)(=O)c1ccc(CNC(=O)c2cnc3c(c2)CCN(c2ncc(C(F)(F)F)cn2)[C@@H]3C(C)C)cc1 (single isomer, unassigned) [Hy2B-3.2] | 100 to 1000 |  | 
CCC1c2ccc(C(=O)NC(CO)c3ccc(S(=O)(=O)CC)cc3)cc2CCN1CC1CCC(C(F)(F)F)CC1 (single isomer, unassigned) [Hy2A-28.3] |  | 100 to 1000 | 
CCOC(=O)c1cnc(N2CCc3cc(C(=O)NCc4ccc(S(=O)(=O)CC)cc4)cnc3[C@H]2C(C)C)nc1C(F)(F)F (single isomer, unassigned) [Hy2B-5.1] | 100 to 1000 |  | 
CCOC(=O)c1cnc(N2CCc3cc(C(=O)NCc4ccc(S(=O)(=O)CC)cc4)cnc3[C@@H]2C(C)C)nc1 (single isomer, unassigned) [Hy2B-4.2] | > 1000 |  | 
CCS(=O)(=O)c1ccc(CNC(=O)c2ccc3c(c2)CN(c2ncc(C#N)cn2)C[C@@H]3C(C)C)cc1 (single isomer, unassigned) [Hy7-2.2] |  | 100 to 1000 | 
CC[C@H]1CN(c2ncc(-c3cccc(OC)n3)cn2)Cc2cc(C(=O)NCc3ccc(S(=O)(=O)CC)cc3)ccc21 (single isomer, unassigned) [Hy7-20.2] |  | 100 to 1000 | 
